Patent US11434222B2, “MAGL inhibitors” (H. LUNDBECK A/S, priority 2020, dated 2022)

Tested on: tonic hind limb extensor seizure (MEST)
Test: Maximal electroshock seizure threshold (MEST) model in the rat
Type: in vivo
Settings: 10 mg/kg p.o., 240 min pre-treatment, FIG. 3 and FIG. 4
Method: In the MEST model, a low-intensity electrical current of high frequency and short duration is applied to induce tonic convulsions.
Animals were randomly assigned to vehicle, compound treatment or Lamotrigine dose groups. Animals were dosed at 5 mL/kg according to treatment groups (n=12 or 16/group), with either vehicle (0.5% MC) p.o. for Example 6, vehicle (10% HP-b-CD) for Example 8, test compound at 10 mg/kg p.o. 240 min pre-treatment time, or Lamotrigine p.o. 360 min pre-treatment time.
Rats were individually assessed for production of a tonic hind limb extensor seizure following a single corneally delivered electroshock of 0.3 second duration, using an ‘up and down method’ of shock titration (Kimball A W et al., 1957). Thus, the first rat within a treatment group was given a shock at the expected or estimated CC50 current (current producing tonic hind limb extensor seizures in 50% of animals). […] This procedure was continued for all rats within a treatment group. Induction of seizure was measured as an all-or-nothing effect scored as either present (+) or absent (0) for each animal. […]
Significant differences between drug-treated animals and controls were assessed according to Litchfield and Wilcoxon (1949) or One-Way ANOVA followed by Dunnett's multiple comparisons test.

Compound | anticonvulsant activity in the MEST (seizure threshold CC50)
O=C(NC1CCOCC1)[C@H]1CC12CCN(C(=O)OC(C(F)(F)F)C(F)(F)F)CC2 [Example 8, 1,1,1,3,3,3-hexafluoropropan-2-yl (S)-1-[(oxan-4-yl)carbamoyl]-6-azaspiro[2.5]octane-6-carboxylate] | anticonvulsant activity
O=C(Nc1cccnn1)[C@H]1CC12CCN(C(=O)OC(C(F)(F)F)C(F)(F)F)CC2 [Example 6, 1,1,1,3,3,3-hexafluoropropan-2-yl (S)-1-(pyridazin-3-ylcarbamoyl)-6-azaspiro[2.5]octane-6-carboxylate] | anticonvulsant activity
